# Reference: ChEMBL document CHEMBL1201862, “PubChem BioAssay data set” (2004)
#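 Five compound concentrations were applied to cells in 96-well plates for 48 hours; endpoints were derived by simple linear interpolation of the resulting dose-response curve. GI50 = concentration required for 50% inhibition of growth.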 Calls of active or inactive are those of the source. Cut-off read from the data, not from the text of the source: active = GI50 up to about 1.1 µM and inactive = higher.
# How the values were obtained:
# Experiment in all cases: NCI-60 cell line screen, 48 h
# [1] = system: 786-0
# [2] = system: HCC 2998
# [3] = system: SF-295
# [4] = system: M14
# [5] = system: MOLT-4
# [6] = system: MDA-MB-231
# [7] = system: EKVX
# [8] = system: UO-31
# [9] = system: A549
# [10] = system: CAKI-1
# [11] = system: Malme-3M
# [12] = system: OVCAR-8
# [13] = system: KM12
# [14] = system: HOP-62
# [15] = system: COLO 205
# [16] = system: BT-549
# [17] = system: OVCAR-5
# [18] = system: SR
# [19] = system: NCI/ADR-RES
# [20] = system: IGROV-1
# [21] = system: A498
# [22] = system: SW-620
# [23] = system: M19-MEL
# [24] = system: HCT-116
# [25] = system: SK-MEL-5
# [26] = system: XF498
# [27] = system: NCI-H226
# [28] = system: HCT-15
# [29] = system: SK-MEL-2
# [30] = system: HOP-18
# [31] = system: DU-145
# [32] = system: MDA-N
# [33] = system: T47D
# [34] = system: RPMI-8226
# [35] = system: NCI-H460
# [36] = system: NCI-H522
# [37] = system: HT-29
# [38] = system: SF-539
# [39] = system: MCF7
# [40] = system: NCI-H23
# [41] = system: U-251
# [42] = system: HOP-92
# [43] = system: DMS-114
# [44] = system: ACHN
# [45] = system: TK-10
# [46] = system: UACC-62
# [47] = system: KM-20L2
# [48] = system: OVCAR-4
# [49] = system: SK-MEL-28
# [50] = system: SN12C
# [51] = system: SNB-19
# [52] = system: RXF 393
# [53] = system: SK-OV-3
# [54] = system: SNB-75
# [55] = system: CCRF-CEM
# [56] = system: SF-268
# [57] = system: DLD-1
# [58] = system: Hs-578T
# [59] = system: LOX IMVI
# [60] = system: K562
# [61] = system: SNB-78
# [62] = system: DMS-273
# [63] = system: OVCAR-3
# [64] = system: PC-3
# [65] = system: MDA-MB-435
# [66] = system: HL-60
# [67] = system: UACC-257
# [68] = system: LXFL 529
smiles,measurement,setting,value
O=C[C@@H](CO)O[C@H](C=O)n1cnc2c(=O)nc[nH]c21,GI50,[1],607 µM (inactive)
same,GI50,[2],116 µM (inactive)
same,GI50,[3],619 µM (inactive)
same,GI50,[4],505 µM (inactive)
same,GI50,[5],123 µM (inactive)
same,GI50,[6],128 µM (inactive)
same,GI50,[7],357 µM (inactive)
same,GI50,[8],401 µM (inactive)
same,GI50,[9],849 µM (inactive)
same,GI50,[10],319 µM (inactive)
same,GI50,[11],301 µM (inactive)
same,GI50,[12],404 µM (inactive)
same,GI50,[13],335 µM (inactive)
same,GI50,[14],264 µM (inactive)
same,GI50,[15],288 µM (inactive)
same,GI50,[16],282 µM (inactive)
same,GI50,[17],634 µM (inactive)
same,GI50,[18],181 µM (inactive)
same,GI50,[19],438 µM (inactive)
same,GI50,[20],188 µM (inactive)
same,GI50,[21],673 µM (inactive)
same,GI50,[22],126 µM (inactive)
same,GI50,[23],346 µM (inactive)
same,GI50,[24],177 µM (inactive)
same,GI50,[25],378 µM (inactive)
same,GI50,[26],459 µM (inactive)
same,GI50,[27],583 µM (inactive)
same,GI50,[28],73.8 µM
same,GI50,[29],318 µM (inactive)
same,GI50,[30],388 µM (inactive)
same,GI50,[31],261 µM (inactive)
same,GI50,[32],108 µM (inactive)
same,GI50,[33],60.5 µM (inactive)
same,GI50,[34],131 µM (inactive)
same,GI50,[35],603 µM (inactive)
same,GI50,[36],146 µM (inactive)
same,GI50,[37],486 µM (inactive)
same,GI50,[38],490 µM (inactive)
same,GI50,[39],91.2 µM (inactive)
same,GI50,[40],243 µM (inactive)
same,GI50,[41],748 µM (inactive)
same,GI50,[42],153 µM (inactive)
same,GI50,[43],39.2 µM (inactive)
same,GI50,[44],540 µM (inactive)
same,GI50,[45],596 µM (inactive)
same,GI50,[46],375 µM (inactive)
same,GI50,[47],426 µM (inactive)
same,GI50,[48],399 µM (inactive)
same,GI50,[49],369 µM (inactive)
same,GI50,[50],266 µM (inactive)
same,GI50,[51],638 µM (inactive)
same,GI50,[52],239 µM (inactive)
same,GI50,[53],501 µM (inactive)
same,GI50,[54],667 µM (inactive)
same,GI50,[55],77.3 µM (inactive)
same,GI50,[56],431 µM (inactive)
same,GI50,[57],77.8 µM (inactive)
same,GI50,[58],664 µM (inactive)
same,GI50,[59],86.9 µM (inactive)
same,GI50,[60],83.9 µM (inactive)
same,GI50,[61],562 µM (inactive)
same,GI50,[62],101 µM (inactive)
same,GI50,[63],290 µM (inactive)
same,GI50,[64],376 µM (inactive)
same,GI50,[65],243 µM (inactive)
same,GI50,[66],65.8 µM (inactive)
same,GI50,[67],378 µM (inactive)
CC12CCC(=O)C[C@H]1CCC(OC=O)C2Br (some centres not stated),GI50,[1],> 100 µM (inactive)
same,GI50,[2],> 100 µM (inactive)
same,GI50,[3],> 100 µM (inactive)
same,GI50,[4],> 100 µM (inactive)
same,GI50,[5],> 100 µM (inactive)
same,GI50,[8],> 100 µM (inactive)
same,GI50,[9],> 100 µM (inactive)
same,GI50,[10],> 100 µM (inactive)
same,GI50,[11],> 100 µM (inactive)
same,GI50,[12],> 100 µM (inactive)
same,GI50,[13],> 100 µM (inactive)
same,GI50,[14],> 100 µM (inactive)
same,GI50,[15],> 100 µM (inactive)
same,GI50,[68],> 100 µM (inactive)
same,GI50,[17],> 100 µM (inactive)
same,GI50,[18],> 100 µM (inactive)
same,GI50,[20],> 100 µM (inactive)
same,GI50,[21],> 100 µM (inactive)
same,GI50,[22],> 100 µM (inactive)
same,GI50,[23],> 100 µM (inactive)
same,GI50,[24],> 100 µM (inactive)
same,GI50,[25],> 100 µM (inactive)
same,GI50,[26],> 100 µM (inactive)
same,GI50,[27],> 100 µM (inactive)
same,GI50,[28],> 100 µM
same,GI50,[29],> 100 µM (inactive)
same,GI50,[30],> 100 µM (inactive)
same,GI50,[34],> 100 µM (inactive)
same,GI50,[35],> 100 µM (inactive)
same,GI50,[36],> 100 µM (inactive)
same,GI50,[37],> 100 µM (inactive)
same,GI50,[38],> 100 µM (inactive)
same,GI50,[40],> 100 µM (inactive)
same,GI50,[41],> 100 µM (inactive)
same,GI50,[42],> 100 µM (inactive)
same,GI50,[43],> 100 µM (inactive)
same,GI50,[44],> 100 µM (inactive)
same,GI50,[45],> 100 µM (inactive)
same,GI50,[46],> 100 µM (inactive)
same,GI50,[47],> 100 µM (inactive)
same,GI50,[48],> 100 µM (inactive)
same,GI50,[49],> 100 µM (inactive)
same,GI50,[50],> 100 µM (inactive)
same,GI50,[51],> 100 µM (inactive)
same,GI50,[53],> 100 µM (inactive)
same,GI50,[54],> 100 µM (inactive)
same,GI50,[55],> 100 µM (inactive)
same,GI50,[56],> 100 µM (inactive)
same,GI50,[57],> 100 µM (inactive)
same,GI50,[59],> 100 µM (inactive)
same,GI50,[60],> 100 µM (inactive)
same,GI50,[62],> 100 µM (inactive)
same,GI50,[63],> 100 µM (inactive)
same,GI50,[66],> 100 µM (inactive)
same,GI50,[67],> 100 µM (inactive)
